US12590953B2, “Methods for screening cereblon modifying compounds” (CELGENE CORPORATION, priority 2018, dated 2026)
Entries after “also recorded” stand apart in the source; their conditions may differ.

Key:
SALL4 [1] = target: T1, SALL4 (Homo sapiens, UniProt Q96SW2+Q9UJQ4); assay: SALL4 protein level in human iPS cells, immunoblot; type: cell-based; conditions: 16 hours
T1 construct: host or cells: human iPS cells (CRBN wild-type and CRBN knock-out)
Experimental: Immunoblot analysis of whole cell lysates of CRBN wild-type (WT) and CRBN knock-out (−/−) human iPS cells was performed. Cells were treated with DMSO vehicle control (−) or thalidomide (Thal) at indicated concentrations for 16 hours (n=4, biological replicates).
Immunoblot analysis of whole cell lysates of human iPS cells treated with DMSO (−) or Thal (+) in the presence or absence of 1 μM MLN4924 or 10 μM MG132 for 6 hours were performed (n=2, biological replicates).
Human iPS cell lines ACS-1019 and ACS-1011 (derived from healthy donors) were obtained from ATCC. The hiPSCs were maintained in mTESR-1 medium (Stem Cell Technologies) in cell culture plates coated with a thin layer of Matrigel (BD Biosciences) incubated at 37° C. in a humidified 5% CO2 incubator according to the manufacturer's instruction. Cells were split through mechanic passaging with a glass pipet and enzymatically digestion with Dispase or Accutase every 2 to 3 days.
Human iPSCs, ACS-1019 was transduced with lentiviral vectors expressing CRISPR-Cas9 and small guide RNA targeting cereblon for 4 days. The resulting colonies were amplified and screened for cereblon knockout by immunoblot analysis with anti-CRBN65 antibody (Celgene).

ZFP91 [2] = target: T2, ZFP91 (Homo sapiens, UniProt Q96JP5+Q96SW2); assay: Degradation of ZFP91 in Lenti-x 293 cells (control substrate); type: cell-based; conditions: Lenti-x 293 cell lines expressing cereblon
T2 construct: endogenous in cells; host or cells: Lenti-x 293 cell line with CRISPR-cas9 cereblon knock-out, transfected with GST-cereblon

SALL4 [3] = target: T3, SALL4 (Mus musculus, UniProt Q8BX22); assay: SALL4 immunohistochemistry in wild-type mouse testis; type: in vivo; conditions: wild type mice, 1000 mg/kg
T3 construct: tissue Taconic; host or cells: wild-type mouse testis (C57Bl/6Ntac)
Experimental: The SALL4 and ZFP91 protein levels were examined by immunohistochemistry in rabbit, wild-type mouse, and humanized cereblon mouse testes. […] HuCRBN Mice were treated for 7 days and testis were collected and examined by immunohistochemistry (n=3 animals per treatment group per species).
(§1) Rabbit embryos were stained for SALL4, and mouse testis were stained for SALL4 and ZFP91. Immunohistochemistry (IHC) was performed on the Bond-III automated slide stainer (Leica Microsystems, Buffalo Grove, Ill.) using the Bond Polymer Refine Detection system (Leica Microsystems, DS9800). Formalin fixed paraffin embedded (FFPE) tissues were sectioned at four micron thick and deparaffinized on the Bond-Max instrument. Antigen retrieval was performed with Epitope Retrieval 2 (ER2, pH 9.0) for 20 min at 100° C. The slides were blocked for endogenous peroxidase activity with Peroxide Block for 5 minutes at room temperature. Sections were then incubated with the mouse monoclonal anti-SALL4 EE-30 antibody (Santa Cruz, sc-101147) at a 1:100 dilution for 60 min at room temperature, or with the rabbit monoclonal anti-ZFP91 antibody (Celgene custom clone 122-8-6) at 0.25 ug/ml. For mouse testis, primary antibodies were incubated for 15 min at room temperature, and Post-Primary and horseradish peroxidase (HRP) labeled Polymer were incubated at the instrument's default conditions. […]

SALL4 [4] = assay: Cellular degradation of SALL4 variants in lenti-X-293 HEK cells expressing GST-CRBN; type: cell-based, human; conditions: 40 μM thalidomide, 16 hours
Experimental: Cells were treated with […] (+) or DMSO vehicle control (−) as indicated for 16 hours (n=2, biological replicates).
Lenti-x-293 cells stably expressing GST-CRBN and SALL4 variants were treated with DMSO or 40 μM thalidomide for 16 hours. Cells were then wished with ice-cold 1×PBS twice, lysed in buffer A [50 mM Tris. CL, 150 mM NaCl, 1% triton-x 100, complete protease inhibitor tablet (Roche), phosphatase inhibitor tablet (Roche)]. Whole cell extracts were harvested and subjected to immunoblot analysis.

ZFP91 [5] = assay: ZFP91 immunohistochemistry in rabbit testis; type: in vivo; conditions: treated male rabbits (150 mg/kg)
Experimental: Male New Zealand white rabbits were treated with vehicle (1% Carboxymethylcellulose in deionized water), or Thalidomide at either 30 or 150 mg/kg/day for 56 days to investigate testicular degeneration. Testis were collected 24 hours after the last dose, fixed in 10% NBF, processed, embedded in paraffin and sectioned at 4 microns for immunohistochemistry.
as §1, with “ug/ml.” for “ug/ml. For mouse testis, primary antibodies were incubated for 15 min at room temperature, and Post-Primary and horseradish peroxidase (HRP) labeled Polymer were incubated at the instrument's default conditions.”

T1 sequence (Q9UJQ4 whole entry): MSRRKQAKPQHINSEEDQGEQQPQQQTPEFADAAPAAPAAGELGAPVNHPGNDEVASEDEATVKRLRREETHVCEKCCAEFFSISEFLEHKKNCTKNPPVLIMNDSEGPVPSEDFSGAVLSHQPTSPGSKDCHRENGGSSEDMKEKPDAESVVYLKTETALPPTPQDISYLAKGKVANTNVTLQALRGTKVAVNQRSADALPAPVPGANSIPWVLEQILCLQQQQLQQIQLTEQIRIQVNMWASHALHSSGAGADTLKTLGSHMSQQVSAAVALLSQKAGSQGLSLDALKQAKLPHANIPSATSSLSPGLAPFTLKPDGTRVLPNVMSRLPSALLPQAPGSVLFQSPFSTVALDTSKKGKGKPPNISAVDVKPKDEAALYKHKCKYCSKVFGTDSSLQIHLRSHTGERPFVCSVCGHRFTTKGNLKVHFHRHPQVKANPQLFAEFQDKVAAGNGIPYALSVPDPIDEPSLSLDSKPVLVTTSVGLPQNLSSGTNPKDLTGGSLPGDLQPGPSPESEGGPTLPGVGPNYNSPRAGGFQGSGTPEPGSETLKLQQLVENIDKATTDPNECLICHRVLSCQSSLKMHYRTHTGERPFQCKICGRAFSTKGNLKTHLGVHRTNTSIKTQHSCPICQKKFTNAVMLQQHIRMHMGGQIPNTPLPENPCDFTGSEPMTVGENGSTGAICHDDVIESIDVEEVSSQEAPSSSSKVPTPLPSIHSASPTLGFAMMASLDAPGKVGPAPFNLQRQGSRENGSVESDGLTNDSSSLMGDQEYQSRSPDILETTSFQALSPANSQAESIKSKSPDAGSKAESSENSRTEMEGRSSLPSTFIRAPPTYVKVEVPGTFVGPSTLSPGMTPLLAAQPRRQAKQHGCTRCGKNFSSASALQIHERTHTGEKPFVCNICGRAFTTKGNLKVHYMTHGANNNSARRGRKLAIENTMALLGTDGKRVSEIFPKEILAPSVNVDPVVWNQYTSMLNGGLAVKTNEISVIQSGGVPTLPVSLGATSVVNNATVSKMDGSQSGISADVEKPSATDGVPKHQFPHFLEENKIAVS
T1 sequence (Q96SW2 whole entry): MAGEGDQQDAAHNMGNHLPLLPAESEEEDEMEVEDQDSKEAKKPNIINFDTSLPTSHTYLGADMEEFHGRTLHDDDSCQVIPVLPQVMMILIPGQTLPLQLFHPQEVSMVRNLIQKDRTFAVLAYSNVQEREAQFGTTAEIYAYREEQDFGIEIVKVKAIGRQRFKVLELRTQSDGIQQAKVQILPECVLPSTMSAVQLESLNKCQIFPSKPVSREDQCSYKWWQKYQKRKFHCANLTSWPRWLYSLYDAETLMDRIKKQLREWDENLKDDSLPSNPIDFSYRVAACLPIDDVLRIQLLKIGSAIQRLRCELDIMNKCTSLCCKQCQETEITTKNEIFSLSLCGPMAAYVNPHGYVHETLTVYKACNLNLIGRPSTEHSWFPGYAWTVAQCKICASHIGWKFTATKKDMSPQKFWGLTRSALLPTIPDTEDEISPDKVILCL
T1 sequence (Q16531 whole entry partner): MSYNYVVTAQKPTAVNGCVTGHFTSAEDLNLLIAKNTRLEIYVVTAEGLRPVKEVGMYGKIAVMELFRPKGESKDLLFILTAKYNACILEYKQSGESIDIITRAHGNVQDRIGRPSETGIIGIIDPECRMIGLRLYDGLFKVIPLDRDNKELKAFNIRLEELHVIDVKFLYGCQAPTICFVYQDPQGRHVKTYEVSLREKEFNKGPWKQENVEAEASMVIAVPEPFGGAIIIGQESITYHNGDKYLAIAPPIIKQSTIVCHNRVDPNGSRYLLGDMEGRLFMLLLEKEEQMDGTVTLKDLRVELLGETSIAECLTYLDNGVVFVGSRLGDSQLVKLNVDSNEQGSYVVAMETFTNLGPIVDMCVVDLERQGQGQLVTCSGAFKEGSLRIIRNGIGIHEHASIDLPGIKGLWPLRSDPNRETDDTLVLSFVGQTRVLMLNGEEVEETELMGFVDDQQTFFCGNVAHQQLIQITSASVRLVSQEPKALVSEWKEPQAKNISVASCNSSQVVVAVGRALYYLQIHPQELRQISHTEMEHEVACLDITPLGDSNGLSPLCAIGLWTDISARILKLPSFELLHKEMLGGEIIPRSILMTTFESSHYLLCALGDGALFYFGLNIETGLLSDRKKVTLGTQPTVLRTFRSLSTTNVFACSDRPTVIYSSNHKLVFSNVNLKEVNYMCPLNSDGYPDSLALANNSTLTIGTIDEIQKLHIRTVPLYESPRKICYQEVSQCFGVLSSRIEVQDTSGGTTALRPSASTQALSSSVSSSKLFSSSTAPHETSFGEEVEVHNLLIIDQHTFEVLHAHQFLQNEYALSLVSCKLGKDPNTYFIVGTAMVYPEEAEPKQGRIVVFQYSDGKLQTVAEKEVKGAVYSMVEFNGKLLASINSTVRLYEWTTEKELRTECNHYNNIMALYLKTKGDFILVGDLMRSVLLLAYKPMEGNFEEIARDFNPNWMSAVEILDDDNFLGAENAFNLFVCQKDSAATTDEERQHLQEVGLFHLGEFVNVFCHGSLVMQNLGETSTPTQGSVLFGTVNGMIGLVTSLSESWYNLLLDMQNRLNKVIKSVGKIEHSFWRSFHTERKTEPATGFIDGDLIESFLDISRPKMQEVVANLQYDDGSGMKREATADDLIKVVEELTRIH
T3 sequence (Q8C7D2 whole entry partner): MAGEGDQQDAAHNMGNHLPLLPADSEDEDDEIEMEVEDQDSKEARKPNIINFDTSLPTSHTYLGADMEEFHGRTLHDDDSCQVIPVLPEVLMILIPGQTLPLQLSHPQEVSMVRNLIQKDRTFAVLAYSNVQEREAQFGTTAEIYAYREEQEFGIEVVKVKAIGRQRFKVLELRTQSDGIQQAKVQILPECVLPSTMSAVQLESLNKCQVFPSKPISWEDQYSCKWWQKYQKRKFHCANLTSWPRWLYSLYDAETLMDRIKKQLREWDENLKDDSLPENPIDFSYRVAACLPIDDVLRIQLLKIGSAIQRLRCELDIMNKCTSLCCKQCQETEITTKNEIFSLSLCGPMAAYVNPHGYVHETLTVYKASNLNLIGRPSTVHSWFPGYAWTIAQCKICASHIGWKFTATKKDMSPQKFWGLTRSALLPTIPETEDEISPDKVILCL
T3 sequence (Q3U1J4 whole entry partner): as the sequence (Q16531 whole entry partner) above, with N418G, A495G, T745S, T1020A counted along it
T3 sequence (Q8BX22 whole entry): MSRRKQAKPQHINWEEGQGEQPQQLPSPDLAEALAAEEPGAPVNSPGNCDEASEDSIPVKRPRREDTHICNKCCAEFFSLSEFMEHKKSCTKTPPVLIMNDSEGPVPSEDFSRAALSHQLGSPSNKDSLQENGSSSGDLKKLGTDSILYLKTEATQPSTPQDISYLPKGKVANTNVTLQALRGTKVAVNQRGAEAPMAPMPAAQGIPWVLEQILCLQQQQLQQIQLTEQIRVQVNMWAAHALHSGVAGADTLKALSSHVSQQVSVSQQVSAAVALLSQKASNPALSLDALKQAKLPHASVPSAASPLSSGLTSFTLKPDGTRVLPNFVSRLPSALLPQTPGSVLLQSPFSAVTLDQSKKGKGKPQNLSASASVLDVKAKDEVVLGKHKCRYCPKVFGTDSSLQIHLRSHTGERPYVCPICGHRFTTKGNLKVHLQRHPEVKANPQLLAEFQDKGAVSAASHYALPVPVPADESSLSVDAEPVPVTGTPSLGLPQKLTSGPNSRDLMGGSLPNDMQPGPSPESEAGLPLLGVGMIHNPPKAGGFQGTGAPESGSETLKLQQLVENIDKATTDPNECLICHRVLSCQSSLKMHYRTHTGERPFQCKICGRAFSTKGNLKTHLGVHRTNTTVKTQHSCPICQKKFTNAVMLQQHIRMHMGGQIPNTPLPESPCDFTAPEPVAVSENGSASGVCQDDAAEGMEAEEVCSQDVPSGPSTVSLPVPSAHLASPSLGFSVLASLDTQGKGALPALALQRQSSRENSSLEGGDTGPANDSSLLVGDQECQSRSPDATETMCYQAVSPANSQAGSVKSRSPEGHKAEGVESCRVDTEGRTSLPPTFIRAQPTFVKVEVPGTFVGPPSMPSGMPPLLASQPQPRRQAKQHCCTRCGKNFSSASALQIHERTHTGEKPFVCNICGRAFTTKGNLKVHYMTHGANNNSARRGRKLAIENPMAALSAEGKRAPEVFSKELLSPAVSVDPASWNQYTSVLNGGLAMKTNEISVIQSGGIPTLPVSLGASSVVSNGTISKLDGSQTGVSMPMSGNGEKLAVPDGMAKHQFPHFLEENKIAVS
T2 sequence (Q96JP5 2-570 limits assumed): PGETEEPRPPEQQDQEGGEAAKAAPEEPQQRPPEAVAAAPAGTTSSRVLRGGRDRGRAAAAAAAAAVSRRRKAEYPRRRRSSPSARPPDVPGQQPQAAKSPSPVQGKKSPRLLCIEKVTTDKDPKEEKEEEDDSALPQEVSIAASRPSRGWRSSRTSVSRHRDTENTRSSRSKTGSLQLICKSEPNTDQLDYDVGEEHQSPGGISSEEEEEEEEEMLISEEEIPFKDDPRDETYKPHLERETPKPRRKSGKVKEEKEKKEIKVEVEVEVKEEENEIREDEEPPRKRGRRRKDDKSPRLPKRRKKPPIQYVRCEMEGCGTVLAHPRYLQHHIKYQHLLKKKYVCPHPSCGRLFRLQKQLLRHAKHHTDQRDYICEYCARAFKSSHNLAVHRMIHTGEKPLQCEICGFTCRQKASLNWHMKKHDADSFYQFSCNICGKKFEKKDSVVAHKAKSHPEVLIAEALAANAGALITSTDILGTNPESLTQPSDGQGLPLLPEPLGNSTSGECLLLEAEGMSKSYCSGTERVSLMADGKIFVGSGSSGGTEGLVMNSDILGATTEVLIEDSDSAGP
T2 sequence (Q96SW2 whole entry): as the sequence (Q96SW2 whole entry) above
T2 sequence (Q16531 whole entry partner): as the sequence (Q16531 whole entry partner) above

O=C1CCC(N2C(=O)c3ccccc3C2=O)C(=O)N1 (stereo not shown) [thalidomide]
SALL4 protein levels in CRBN wild-type human iPS cells (SALL4 [1]; indicated concentrations): reduced upon exposure to thalidomide in a dose dependent fashion; also recorded: dependent on thalidomide and cerelon
SALL4 downregulation in CRBN knock-out human iPS cells (SALL4 [1]; CRISPR-mediated cereblon knockout): completely blocked the downregulation of SALL4 induced by thalidomide
ZFP91 degradation (ZFP91 [2]): exhibited compound-dependent degradation in all cell lines expressing cereblon
SALL4 protein levels in testis (SALL4 [3]): exhibited no depletion of SALL4 or ZFP91; also recorded: did not cause significant degradation of either ZFP91 or SALL4
Degradation of G416A SALL4 (SALL4 [4]): blocked the thalidomide dependent degradation of SALL4
Degradation of G600A SALL4 (SALL4 [4]): had no effect on SALL4 degradation
ZFP91 protein levels in testis (ZFP91 [5]): correspondingly depleted; also recorded: caused degradation of both ZFP91 and SALL4
